Reference: US8173631B2, “Cyclic amine compounds” (Daiichi Sankyo Company, Limited, priority 2008, dated 2012)

Target: T1, human calcium-sensing receptor (CaSR) (Homo sapiens, UniProt P41180)
T1 construct: expressed in transfected cells
T1 sequence (P41180 20-1078): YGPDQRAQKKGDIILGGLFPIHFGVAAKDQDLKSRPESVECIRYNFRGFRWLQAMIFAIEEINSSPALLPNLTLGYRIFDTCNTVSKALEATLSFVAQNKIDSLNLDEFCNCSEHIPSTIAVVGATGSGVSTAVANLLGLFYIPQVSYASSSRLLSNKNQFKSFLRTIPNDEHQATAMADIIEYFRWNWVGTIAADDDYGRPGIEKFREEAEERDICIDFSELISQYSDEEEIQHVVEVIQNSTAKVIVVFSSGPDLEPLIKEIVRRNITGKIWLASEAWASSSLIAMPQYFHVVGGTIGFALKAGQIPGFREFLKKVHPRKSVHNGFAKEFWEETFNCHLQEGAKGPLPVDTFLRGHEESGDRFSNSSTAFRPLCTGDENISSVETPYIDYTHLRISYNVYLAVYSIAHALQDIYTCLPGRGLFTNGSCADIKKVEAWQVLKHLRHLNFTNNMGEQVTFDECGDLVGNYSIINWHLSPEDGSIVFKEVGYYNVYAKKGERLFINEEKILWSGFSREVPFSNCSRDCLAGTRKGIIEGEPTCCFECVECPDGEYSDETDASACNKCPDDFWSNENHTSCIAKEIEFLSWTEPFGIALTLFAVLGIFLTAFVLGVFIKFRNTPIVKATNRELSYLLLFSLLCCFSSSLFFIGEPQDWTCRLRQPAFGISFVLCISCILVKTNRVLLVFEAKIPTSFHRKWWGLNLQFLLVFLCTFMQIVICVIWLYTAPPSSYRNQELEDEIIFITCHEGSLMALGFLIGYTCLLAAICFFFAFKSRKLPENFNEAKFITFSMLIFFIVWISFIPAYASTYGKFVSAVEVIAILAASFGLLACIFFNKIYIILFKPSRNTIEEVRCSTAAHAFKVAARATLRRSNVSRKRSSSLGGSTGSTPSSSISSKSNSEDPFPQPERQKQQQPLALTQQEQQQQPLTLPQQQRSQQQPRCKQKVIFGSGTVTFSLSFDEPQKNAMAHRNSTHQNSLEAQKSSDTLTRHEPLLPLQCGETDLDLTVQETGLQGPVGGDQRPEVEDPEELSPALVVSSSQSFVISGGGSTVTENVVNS
Test: Inhibitory activity on calcium-sensing receptor (CaSR), intracellular calcium increase as indicator (FLIPR, CHO/hCaSR)
Format: cell-based
Details: CHO cells stably expressing human CaSR; inhibition of intracellular Ca increase induced by extracellular CaCl2
Experimental: Evaluation of inhibitory activity on calcium-sensing receptor (CaSR) using intracellular calcium increase as an indicator
The preparation which is prepared by adding CHO/hCaSR to F12 medium (manufactured by Invitrogen) containing 10% fetal bovine serum to have 2×10^5 cells/mL was applied to a 384-well in an amount of 50 μL/well, and then incubated overnight in a CO2 incubator. The culture supernatant was completely removed, the assay buffer (20 mM HEPES, HBSS (Ca and Mg free) containing 2.5 mM probenecid, pH 7.4) containing Calcium 3 (manufactured by Molecular Devices), i.e., a fluorescent intracellular calcium indicator, was added thereto in an amount of 25 μL/well, and the mixture was maintained for 1 hour in a CO2 incubator. Meanwhile, Calcium 3 was prepared according to the protocol enclosed in FLIPR Calcium 3 Assay Kit (manufactured by Molecular Devices). After maintaining it for 1 hour, a solution in which the test compound is prepared to have 2.1 to 20,000 nM (final concentration of 1.05 to 10,000 nM) by an assay buffer was added thereto in an amount of 25 μL/well, and maintained for 15 minutes in a CO2 incubator. Then, the CaCl2 solution prepared to have […] by using the assay buffer was added in an amount of 25 μL/well, and the resulting intracellular Ca increase (i.e., fluorescence intensity) was measured over time using a fluorescence imaging plate reader (FLIPR, manufactured by Molecular Devices). From the data obtained, the difference between the fluorescence intensity before the addition of CaCl2 solution and the maximum fluorescence intensity after the addition of CaCl2 solution was calculated, and the 50% inhibition concentration (IC50) of the test compound was obtained.

Compound | IC50 [µM]
Cc1ccc([C@@H](C)OC[C@H](O)CN2CCC[C@H]2Cc2ccc(C)c(Cl)c2)c(CCC(=O)O)c1 [Example 126] | ≤ 3.38
Cc1ccc(C[C@@H]2CCCN2C[C@@H](O)CO[C@H](C)c2ccc(Cl)cc2CCC(=O)O)cc1Cl [Example 127] | ≤ 3.24
Cc1ccc([C@@H](C)OC[C@H](O)CN2CCC[C@H]2Cc2ccc(Cl)c(F)c2)c(CCC(=O)O)c1 [Example 128] | ≤ 3.35
C[C@@H](OC[C@H](O)CN1CCC[C@H]1Cc1ccc(Cl)c(F)c1)c1cc(F)ccc1CCC(=O)O [Example 130] | ≤ 3.32
C[C@@H](OC[C@H](O)CN1CCC[C@H]1Cc1ccc(Cl)c(F)c1)c1ccc(Cl)cc1CCC(=O)O [Example 131] | ≤ 3.21
Cc1ccc(C[C@@H]2CCCN2C[C@@H](O)CO[C@H](C)c2cc(F)cc(F)c2CCC(=O)O)cc1Cl [Example 132] | ≤ 3.23
C[C@@H](OC[C@H](O)CN1CCC[C@H]1Cc1ccc(Cl)c(F)c1)c1cc(F)cc(F)c1CCC(=O)O [Example 133] | ≤ 3.2
CC[C@@H](OC[C@H](O)CN1CCC[C@H]1Cc1ccc(C)c(Cl)c1)c1cc(F)ccc1CCC(=O)O [Example 134] | ≤ 3.25
CC[C@@H](OC[C@H](O)CN1CCC[C@H]1Cc1ccc(Cl)c(F)c1)c1cc(F)ccc1CCC(=O)O [Example 135] | ≤ 3.23
CC[C@@H](OC[C@H](O)CN1CCC[C@H]1Cc1ccc(C)c(Cl)c1)c1ccc(C)cc1CCC(=O)O [Example 136] | ≤ 3.28
CC[C@@H](OC[C@H](O)CN1CCC[C@H]1Cc1ccc(C)c(Cl)c1)c1cccc(F)c1CCC(=O)O [Example 138] | ≤ 3.25
CC[C@@H](OC[C@H](O)CN1CCC[C@H]1Cc1ccc(Cl)c(F)c1)c1cccc(F)c1CCC(=O)O [Example 139] | ≤ 3.23
Cc1cc(CCC(=O)O)c([C@@H](C)OC[C@H](O)CN2CCC[C@H]2Cc2ccc(Cl)c(F)c2)cc1F [Example 148] | ≤ 3.23
C[C@@H](OC[C@H](O)CN1CCC[C@H]1Cc1ccc(Cl)c(F)c1)c1cc(F)c(F)cc1CCC(=O)O [Example 149] | ≤ 3.2
Cc1ccc(C[C@@H]2CCCN2C[C@@H](O)CO[C@H](C)c2cccc(Cl)c2CCC(=O)O)cc1Cl [Example 150] | ≤ 3.24
C[C@@H](OC[C@H](O)CN1CCC[C@H]1Cc1ccc(Cl)c(F)c1)c1cccc(Cl)c1CCC(=O)O [Example 153] | ≤ 3.21
CC[C@@H](OC[C@H](O)CN1CCC[C@H]1Cc1ccc(C)c(F)c1)c1cc(F)c(F)cc1CCC(=O)O [Example 154] | ≤ 3.24
CC[C@@H](OC[C@H](O)CN1CCC[C@H]1Cc1ccc(C)c(F)c1)c1cc(F)cc(F)c1CCC(=O)O [Example 155] | ≤ 3.24
Cc1ccc(C[C@@H]2CCCN2C[C@@H](O)CO[C@H](C)c2cc(F)c(Cl)cc2CCC(=O)O)cc1F [Example 156] | ≤ 3.23
Cc1ccc(C[C@@H]2CCCN2C[C@@H](O)COC(C)c2c(Cl)cccc2CCC(=O)O)cc1F (some centres unmarked) [Example 157] | ≤ 3.35
C[C@@H](OC[C@H](O)CN1CCC[C@H]1Cc1ccc(Cl)c(F)c1)c1ccccc1CCC(=O)O [Example 159] | ≤ 3.45
Cc1cccc([C@@H](C)OC[C@H](O)CN2CCC[C@H]2Cc2ccc(Cl)c(Cl)c2)c1CCC(=O)O [Example 162] | ≤ 3.24
CCc1cc(C[C@@H]2CCCN2C[C@@H](O)CO[C@H](C)c2cccc(C)c2CCC(=O)O)ccc1Cl [Example 163] | ≤ 3.28
Cc1ccc(C[C@@H]2CCCN2C[C@@H](O)CO[C@H](C)c2cc(F)ccc2CCC(=O)O)cc1Cl [Example 166] | ≤ 3.35
COc1cccc([C@@H](C)OC[C@H](O)CN2CCC[C@H]2Cc2ccc(C)c(Cl)c2)c1CCC(=O)O [Example 167] | ≤ 3.27
COc1cccc([C@@H](C)OC[C@H](O)CN2CCC[C@H]2Cc2ccc(Cl)c(F)c2)c1CCC(=O)O [Example 168] | ≤ 3.24
Cc1ccc(C[C@@H]2CCCN2C[C@@H](O)CO[C@H](C)c2cccc(C)c2CCC(=O)O)cc1Cl [Example 169] | ≤ 3.38
Cc1cccc([C@@H](C)OC[C@H](O)CN2CCC[C@H]2Cc2ccc(Cl)c(F)c2)c1CCC(=O)O [Example 170] | ≤ 3.35
CC[C@@H](OC[C@H](O)CN1CCC[C@H]1Cc1ccc(C)c(Cl)c1)c1cccc(C)c1CCC(=O)O [Example 172] | ≤ 3.28

The remaining lines, values ahead:

IC50 [µM] | Compound
≤ 3.19 | CCc1cc(C[C@@H]2CCCN2C[C@@H](O)CO[C@H](CC)c2cccc(C)c2CCC(=O)O)ccc1Cl [Example 122]
≤ 3.16 | CCC[C@@H](OC[C@H](O)CN1CCC[C@H]1Cc1ccc(C)c(F)c1)c1cc(Cl)ccc1CCC(=O)O [Example 123]
≤ 3.16 | CCC[C@@H](OC[C@H](O)CN1CCC[C@H]1Cc1ccc(C)c(F)c1)c1ccc(Cl)cc1CCC(=O)O [Example 124]
≤ 3.16 | CCC[C@@H](OC[C@H](O)CN1CCC[C@H]1Cc1ccc(C)c(F)c1)c1cccc(Cl)c1CCC(=O)O [Example 125]
≤ 3.15 | CC[C@@H](OC[C@H](O)CN1CCC[C@H]1Cc1ccc(C)c(Cl)c1)c1ccc(Cl)cc1CCC(=O)O [Example 129]
≤ 3.12 | CC[C@@H](OC[C@H](O)CN1CCC[C@H]1Cc1ccc(Cl)c(F)c1)c1ccc(Cl)cc1CCC(=O)O [Example 137]
≤ 3.14 | CC[C@@H](OC[C@H](O)CN1CCC[C@H]1Cc1ccc(C)c(Cl)c1)c1cc(F)cc(F)c1CCC(=O)O [Example 140]
≤ 3.11 | CC[C@@H](OC[C@H](O)CN1CCC[C@H]1Cc1ccc(Cl)c(F)c1)c1cc(F)cc(F)c1CCC(=O)O [Example 141]
≤ 3.15 | CC[C@@H](OC[C@H](O)CN1CCC[C@H]1Cc1ccc(C)c(Cl)c1)c1cccc(Cl)c1CCC(=O)O [Example 142]
≤ 3.12 | CC[C@@H](OC[C@H](O)CN1CCC[C@H]1Cc1ccc(Cl)c(F)c1)c1cccc(Cl)c1CCC(=O)O [Example 143]
≤ 3.14 | CC[C@@H](OC[C@H](O)CN1CCC[C@H]1Cc1ccc(C)c(Cl)c1)c1cc(F)c(F)cc1CCC(=O)O [Example 144]
≤ 3.11 | CC[C@@H](OC[C@H](O)CN1CCC[C@H]1Cc1ccc(Cl)c(F)c1)c1cc(F)c(F)cc1CCC(=O)O [Example 145]
≤ 3.16 | CCc1cc(C[C@@H]2CCCN2C[C@@H](O)CO[C@H](C)c2cc(F)c(C)cc2CCC(=O)O)ccc1Cl [Example 146]
≤ 3.14 | CCc1cc(C[C@@H]2CCCN2C[C@@H](O)CO[C@H](C)c2cc(F)c(F)cc2CCC(=O)O)ccc1Cl [Example 147]
≤ 3.11 | C[C@@H](OC[C@H](O)CN1CCC[C@H]1Cc1ccc(Cl)c(Cl)c1)c1cccc(Cl)c1CCC(=O)O [Example 151]
≤ 3.15 | CCc1cc(C[C@@H]2CCCN2C[C@@H](O)CO[C@H](C)c2cccc(Cl)c2CCC(=O)O)ccc1Cl [Example 152]
≤ 3.11 | C[C@@H](OC[C@H](O)CN1CCC[C@H]1Cc1ccc(Cl)c(Cl)c1)c1ccc(Cl)cc1CCC(=O)O [Example 160]
≤ 3.15 | CCc1cc(C[C@@H]2CCCN2C[C@@H](O)CO[C@H](C)c2ccc(Cl)cc2CCC(=O)O)ccc1Cl [Example 161]
≤ 3.13 | COc1cccc([C@@H](C)OC[C@H](O)CN2CCC[C@H]2Cc2ccc(Cl)c(Cl)c2)c1CCC(=O)O [Example 164]
≤ 3.17 | CCc1cc(C[C@@H]2CCCN2C[C@@H](O)CO[C@H](C)c2cccc(OC)c2CCC(=O)O)ccc1Cl [Example 165]
≤ 3.17 | CC[C@@H](OC[C@H](O)CN1CCC[C@H]1Cc1ccc(C)c(Cl)c1)c1cccc(OC)c1CCC(=O)O [Example 171]
